Experimental data taken from patent US10077247B2, “Tricyclic spiro compound” (ONO PHARMACEUTICAL CO., LTD., priority 2015, dated 2018).

Columns and labels:
[1] = molecular target: rat EP4 receptor (Rattus norvegicus (Rat), UniProt P43114); test: EP4 antagonistic activity measurement using prostanoid receptor subtype expressing cells (cAMP); type: cell-based; conditions: CHO cells expressing rat EP4 receptor; inhibition of cAMP production by PGE2 10 nM
Experimental: CHO cells expressing rat EP4 receptor subtypes were prepared according to the methods of Nishigaki et al. (FEBS Letters, Vol. 364, p. 339-341, 1995), and used for experiment. Cultured subconfluent cells were detached, and suspended in an assay medium (MEM containing 1 mmol/L IBMX, 1% HSA) in a concentration of 1×10^6 cells/mL. For reaction, PGE2 was added to the cell suspension (25 μL) in a final concentration of 10 nmol/L, either alone or as a 25-μL PGE2 solution containing the test compound. After 30 minutes of reaction at room temperature, the amount of cAMP in the cells was quantified according to the method in the descriptions of the cAMP assay kit (CISBIO).
The antagonistic effect (IC50 value) of the test compound was calculated as a value that represents an inhibition rate against a reaction with PGE2 alone at 10 nM, a concentration that produces a submaximal cAMP producing effect.

[2] = Pharmacokinetics test (hepatic microsome stability test); conditions: human hepatic microsome 1 mg/mL, 37° C., 60 min, 1 μmol/L

rat EP4 receptor, sequence (P43114 whole entry): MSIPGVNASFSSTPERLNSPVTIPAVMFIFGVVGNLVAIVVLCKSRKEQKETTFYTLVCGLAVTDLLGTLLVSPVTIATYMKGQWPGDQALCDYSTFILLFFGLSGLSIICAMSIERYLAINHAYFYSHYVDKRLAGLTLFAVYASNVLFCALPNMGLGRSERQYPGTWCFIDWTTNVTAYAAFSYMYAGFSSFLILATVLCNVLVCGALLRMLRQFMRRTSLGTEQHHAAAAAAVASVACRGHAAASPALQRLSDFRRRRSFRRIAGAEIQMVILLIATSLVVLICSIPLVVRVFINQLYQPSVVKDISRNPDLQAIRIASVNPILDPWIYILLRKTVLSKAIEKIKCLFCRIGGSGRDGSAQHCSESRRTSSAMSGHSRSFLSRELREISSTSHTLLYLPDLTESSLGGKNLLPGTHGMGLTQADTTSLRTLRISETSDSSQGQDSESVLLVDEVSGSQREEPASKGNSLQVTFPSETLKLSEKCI

| SMILES | IC50 [1] | Remaining rate (%) [2] |
| --- | --- | --- |
| N#Cc1ccc(CCCC(=O)O)c(NC(=O)[C@@H]2C[C@]23CCOc2ccc(-c4cccnc4)cc23)c1 [Example 7-3, 4-[4-Cyano-2-({[(2′R,4S)-6-(3-pyridinyl)-2,3-dihydrospiro[chromene-4,1′-cyclopropan]-2′-yl]carbonyl}amino)phenyl]butanoic acid] | 3.8 nM | 72% |
| N#Cc1ccc(CCCC(=O)O)c(NC(=O)[C@@H]2C[C@]23CCOc2ccc(-n4cccn4)cc23)c1 [Example 7-4, 4-[4-Cyano-2-({[(2′R,4S)-6-(1H-pyrazol-1-yl)-2,3-dihydrospiro[chromene-4,1′-cyclopropan]-2′-yl]carbonyl}amino)phenyl]butanoic acid] | 2.4 nM | 71% |
| N#Cc1ccc(CCCC(=O)O)c(NC(=O)[C@@H]2C[C@]23CCOc2ccc(N4CCCC4=O)cc23)c1 [Example 7-10, 4-[4-Cyano-2-({[(2′R,4S)-6-(2-oxo-1-pyrrolidinyl)-2,3-dihydrospiro[chromene-4,1′-cyclopropan]-2′-yl]carbonyl}amino)phenyl]butanoic acid] | 8.6 nM | 89% |
| COc1ccc(-c2ccc3c(c2)[C@]2(CCO3)C[C@H]2C(=O)Nc2cc(C#N)ccc2CCCC(=O)O)cn1 [Example 7-13, 4-[4-Cyano-2-({[(2′R,4S)-6-(6-methoxy-3-pyridinyl)-2,3-dihydrospiro[chromene-4, 1′-cyclopropan]-2′-yl]carbonyl}amino)phenyl]butanoic acid] | 3.5 nM | 95% |
| Cc1ccc(-c2ccc3c(c2)[C@]2(CCO3)C[C@H]2C(=O)Nc2cc(C#N)ccc2CCCC(=O)O)cn1 [Example 7-16, 4-[4-Cyano-2-({[(2′R,4S)-6-(6-methyl-3-pyridinyl)-2,3-dihydrospiro[chromene-4,1′-cyclopropan]-2′-yl]carbonyl}amino)phenyl]butanoic acid] | 5.7 nM | 80% |
| N#Cc1ccc(CCCC(=O)O)c(NC(=O)[C@@H]2C[C@]23CCOc2ccc(-c4ccc(F)nc4)cc23)c1 [Example 7-17, 4-[4-Cyano-2-({[(2′R,4S)-6-(6-fluoro-3-pyridinyl)-2,3-dihydrospiro[chromene-4, 1′-cyclopropan]-2′-yl]carbonyl}amino)phenyl]butanoic acid] | 6.1 nM | 82% |
| N#Cc1ccc(CCCC(=O)O)c(NC(=O)[C@@H]2C[C@]23CCOc2ccc(-c4cnc5[nH]ccc5c4)cc23)c1 [Example 7-19, 4-[4-Cyano-2-({[(2′R,4S)-6-(1H-pyrrolo[2,3-b]pyridin-5-yl)-2,3-dihydrospiro[chromene-4,1′-cyclopropan]-2′-yl]carbonyl}amino)phenyl]butanoic acid] | 4.5 nM | 100% |
| CNc1ccc(-c2ccc3c(c2)[C@]2(CCO3)C[C@H]2C(=O)Nc2cc(C#N)ccc2CCCC(=O)O)cn1 [Example 7-21, 4-{4-Cyano-2-[({(2′R,4S)-6-[6-(methylamino)-3-pyridinyl]-2,3-dihydrospiro[chromene-4,1′-cyclopropan]-2′-yl}carbonyl)amino]phenyl}butanoic acid] | 10 nM | 76% |
| N#Cc1ccc(CCCC(=O)O)c(NC(=O)[C@@H]2C[C@]23CCOc2ccc(-c4ncco4)cc23)c1 [Example 10-3, 4-[4-Cyano-2-({[(2′R,4S)-6-(1,3-oxazol-2-yl)-2,3-dihydrospiro[chromene-4,1′-cyclopropan]-2′-yl]carbonyl}amino)phenyl]butanoic acid] | 5.7 nM | 87% |
| Cn1cc(-c2ccc3c(c2)[C@]2(CCO3)C[C@H]2C(=O)Nc2cc(C#N)ccc2CCCC(=O)O)nn1 [Example 10-4, 4-[4-Cyano-2-({[(2′R,4S)-6-(1-methyl-1H-1,2,3-triazol-4-yl)-2,3-dihydrospiro[chromene-4,1′-cyclopropan]-2′-yl]carbonyl}amino)phenyl]butanoic acid] | 3.5 nM | 73% |
| N#Cc1ccc(CCCC(=O)O)c(NC(=O)[C@@H]2C[C@]23CCOc2ccc(-c4cccnn4)cc23)c1 [Example 10-5, 4-[4-Cyano-2-({[(2′R,4S)-6-(3-pyridazinyl)-2,3-dihydrospiro[chromene-4, 1′-cyclopropan]-2′-yl]carbonyl}amino)phenyl]butanoic acid] | 4.1 nM | 86% |
| N#Cc1ccc(CCCC(=O)O)c(NC(=O)[C@@H]2C[C@]23CCOc2ccc(-c4ccc(F)cn4)cc23)c1 [Example 10-9, 4-[4-Cyano-2-({[(2′R,4S)-6-(5-fluoro-2-pyridinyl)-2,3-dihydrospiro[chromene-4,1′-cyclopropan]-2′-yl]carbonyl}amino)phenyl]butanoic acid] | 6.7 nM | 75% |
| CNC(=O)c1ccc2c(c1)[C@]1(CC2)C[C@H]1C(=O)Nc1cc(C#N)ccc1CCCC(=O)O [Example 18-1, 4-[4-Cyano-2-({[(1R,2R)-6′-(methylcarbamoyl)-2′,3′-dihydrospiro[cyclopropane-1, 1′-inden]-2-yl]carbonyl}amino)phenyl]butanoic acid] | 1.2 nM | 90% |
| COCCNC(=O)c1ccc2c(c1)[C@]1(CC2)C[C@H]1C(=O)Nc1cc(C#N)ccc1CCCC(=O)O [Example 18-2, 4-{4-Cyano-2-[({(1R,2R)-6′-[(2-methoxyethyl)carbamoyl]-2′,3′-dihydrospiro[cyclopropane-1,1′-inden]-2-yl}carbonyl)amino]phenyl}butanoic acid] | 3 nM | 100% |
| Cn1cc(NC(=O)c2ccc3c(c2)[C@]2(CC3)C[C@H]2C(=O)Nc2cc(C#N)ccc2CCCC(=O)O)cn1 [Example 18-3, 4-{4-Cyano-2-[({(1R,2R)-6′-[(1-methyl-1H-pyrazol-4-yl)carbamoyl]-2′,3′-dihydrospiro[cyclopropane-1,1′-inden]-2-yl}carbonyl)amino]phenyl}butanoic acid] | 2.7 nM | 91% |
| CNC(=O)c1cc2c(cc1F)OCC[C@]21C[C@H]1C(=O)Nc1cc(C#N)ccc1CCCC(=O)O [Example 20-1] | 8.5 nM | 88% |
| COCCNC(=O)c1cc2c(cc1F)OCC[C@]21C[C@H]1C(=O)Nc1cc(C#N)ccc1CCCC(=O)O [Example 20-2, 4-{4-Cyano-2-[({(2′R,4S)-7-fluoro-6-[(2-methoxyethyl)carbamoyl]-2,3-dihydrospiro[chromene-4,1′-cyclopropan]-2′-yl}carbonyl)amino]phenyl}butanoic acid] | 1.6 nM | 77% |
| CC(C)NC(=O)c1cc2c(cc1F)OCC[C@]21C[C@H]1C(=O)Nc1cc(C#N)ccc1CCCC(=O)O [Example 20-5, 4-[4-Cyano-2-({[(2′R,4S)-7-fluoro-6-(isopropylcarbamoyl)-2,3-dihydrospiro[chromene-4, 1′-cyclopropan]-2′-yl]carbonyl}amino)phenyl]butanoic acid] | 9.5 nM | 100% |
| CNC(=O)c1ccc2c(c1)OCC[C@]21C[C@H]1C(=O)Nc1cc(C#N)ccc1CCCC(=O)O [Example 28-1, 4-[4-Cyano-2-({[(2′R,4S)-7-(methylcarbamoyl)-2,3-dihydrospiro[chromene-4,1′-cyclopropan]-2′-yl]carbonyl}amino)phenyl]butanoic acid] | 6.4 nM | 91% |
| COCCNC(=O)c1ccc2c(c1)OCC[C@]21C[C@H]1C(=O)Nc1cc(C#N)ccc1CCCC(=O)O [Example 28-2, 4-{4-Cyano-2-[({(2′R,4S)-7-[(2-methoxyethyl)carbamoyl]-2,3-dihydrospiro[chromene-4,1′-cyclopropan]-2′-yl}carbonyl)amino]phenyl}butanoic acid] | 6.9 nM | 100% |
| CNC(=O)c1cc2c(cc1OC)OCC[C@]21C[C@H]1C(=O)Nc1cc(C#N)ccc1CCCC(=O)O [Example 33-1, 4-[4-Cyano-2-({[(2′R,4S)-7-methoxy-6-(methylcarbamoyl)-2,3-dihydrospiro[chromene-4,1′-cyclopropan]-2′-yl]carbonyl}amino)phenyl]butanoic acid] | 10 nM | 98% |
| COCCNC(=O)c1cc2c(cc1OC)OCC[C@]21C[C@H]1C(=O)Nc1cc(C#N)ccc1CCCC(=O)O [Example 33-2, 4-{4-Cyano-2-[({(2′R,4S)-7-methoxy-6-[(2-methoxyethyl)carbamoyl]-2,3-dihydrospiro[chromene-4,1′-cyclopropan]-2′-yl}carbonyl)amino]phenyl}butanoic acid] | 8.4 nM | 100% |
| N#Cc1ccc(CCCC(=O)O)c(NC(=O)[C@@H]2C[C@]23COc2ccc(-c4cccnc4)cc23)c1 [Example 36, 4-[4-Cyano-2-({[(2′R,3S)-5-(3-pyridinyl)spiro[1-benzofuran-3,1′-cyclopropan]-2′-yl]carbony}amino)phenyl]butanoic acid] | 4.5 nM | 93% |
| CNC(=O)c1ccc2c(c1)[C@]1(CO2)C[C@H]1C(=O)Nc1cc(C#N)ccc1CCCC(=O)O [Example 37-1, 4-[4-Cyano-2-({[(2′R,3S)-5-(methylcarbamoyl)spiro[1-benzofuran-3,1′-cyclopropan]-2′-yl]carbonyl}amino)phenyl]butanoic acid] | 7.2 nM | 77% |
